Tests used:
[1] = Phytotoxicity against Oryza sativa (rice) assessed as growth inhibition under greenhouse at 5 g/ha measured after 18 days by preemergence activity assay; type: organism-based; settings: in vivo, read-out: GI
Rotala indica = assay: Herbicidal activity against Rotala indica assessed as growth inhibition in paddy condition under greenhouse at 5 g/ha measured after 18 days by preemergence activity assay; type: functional; settings: pre-emergence, 432 h, read-out: GI
Pontederia vaginalis [2] = assay: Herbicidal activity against Monochoria vaginalis assessed as growth inhibition in paddy condition under greenhouse at 5 g/ha measured after 18 days by preemergence activity assay; type: functional; settings: pre-emergence, 432 h, read-out: GI
[3] = test system: Schoenoplectiella juncoides; assay: Herbicidal activity against Schoenoplectiella juncoides assessed as growth inhibition in paddy condition under greenhouse at 5 g/ha measured after 18 days by preemergence activity assay; type: functional; settings: pre-emergence, 432 h, read-out: GI
Echinochloa crus-galli [4] = assay: Herbicidal activity against Echinochloa crus-galli (barnyard grass) assessed as growth inhibition in paddy condition under greenhouse at 5 g/ha measured after 18 days by preemergence activity assay; type: functional; settings: pre-emergence, 432 h, read-out: GI
Oryza sativa [5] = assay: Effect on Oryza sativa (rice) plant growth in transplanted Oryza sativa field assessed as plant height at 1500 g/ha treated after 3 days transplanting; type: organism-based; settings: in vivo, other, 72 h
Cyperus serotinus [6] = assay: Herbicidal activity against Cyperus serotinus assessed as weed control in transplanted rice field at 1500 g/ha treated after 7 days transplanting; type: functional
Sagittaria pygmaea [7] = assay: Herbicidal activity against Sagittaria pygmaea assessed as weed control in transplanted rice field at 1500 g/ha treated after 7 days transplanting; type: functional
unidentified [8] = assay: Herbicidal activity against broadleaf weed assessed as weed control in transplanted rice field at 1500 g/ha treated after 7 days transplanting; type: functional
Pontederia vaginalis [9] = assay: Herbicidal activity against Monochoria vaginalis assessed as weed control in transplanted rice field at 1500 g/ha treated after 7 days transplanting; type: functional
[10] = test system: Schoenoplectiella juncoides; assay: Herbicidal activity against Schoenoplectiella juncoides assessed as weed control in transplanted rice field at 1500 g/ha treated after 7 days transplanting; type: functional
Echinochloa crus-galli [11] = assay: Herbicidal activity against Echinochloa crus-galli (barnyard grass) assessed as weed control in transplanted rice field at 1500 g/ha treated after 7 days transplanting; type: functional
Cyperus serotinus [12] = assay: Herbicidal activity against Cyperus serotinus assessed as weed control in transplanted rice field at 1500 g/ha treated after 3 days transplanting; type: functional
Sagittaria pygmaea [13] = assay: Herbicidal activity against Sagittaria pygmaea assessed as weed control in transplanted rice field at 1500 g/ha treated after 3 days transplanting; type: functional
unidentified [14] = assay: Herbicidal activity against broadleaf weed assessed as weed control in transplanted rice field at 1500 g/ha treated after 3 days transplanting; type: functional
Pontederia vaginalis [15] = assay: Herbicidal activity against Monochoria vaginalis assessed as weed control in transplanted rice field at 1500 g/ha treated after 3 days transplanting; type: functional
[16] = test system: Schoenoplectiella juncoides; assay: Herbicidal activity against Schoenoplectiella juncoides assessed as weed control in transplanted rice field at 1500 g/ha treated after 3 days transplanting; type: functional
Echinochloa crus-galli [17] = assay: Herbicidal activity against Echinochloa crus-galli (barnyard grass) assessed as weed control in transplanted rice field at 1500 g/ha treated after 3 days transplanting; type: functional
Oryza sativa [18] = assay: Effect on Oryza sativa (rice) plant growth in transplanted Oryza sativa field assessed as plant height at 1500 g/ha treated after 7 days transplanting; type: organism-based; settings: in vivo, other, 168 h
Oryza sativa [19] = assay: Effect on Oryza sativa (rice) plant growth in transplanted Oryza sativa field assessed as number of tillers at 1500 g/ha treated after 7 days transplanting; type: organism-based; settings: in vivo, other, 168 h
Oryza sativa [20] = assay: Effect on Oryza sativa (rice) plant growth in transplanted Oryza sativa field assessed as number of tillers at 1500 g/ha treated after 3 days transplanting; type: organism-based; settings: in vivo, other, 72 h

Row | SMILES | inhibition at 432 h [1] [%] | inhibition of growth at 5 g/ha (Rotala indica) [%] | inhibition of growth at 5 g/ha (Pontederia vaginalis [2]) [%] | inhibition of growth at 5 g/ha [3] [%] | inhibition of growth at 5 g/ha (Echinochloa crus-galli [4]) [%] | also measured
1 | CCOC(=O)c1c(CC)nn(C)c1S(=O)(=O)NC(=O)Nc1nc(OC)cc(OC)n1 | < 5 | > 90 | 70 | 40 | 20 | –
2 | CCOC(=O)c1c(Cl)nn(C)c1S(=O)(=O)NC(=O)Nc1nc(OC)cc(OC)n1 | < 5 | > 90 | > 90 | 70 | 20 | –
3 | CCOC(=O)c1c(C(F)(F)F)nn(C)c1S(=O)(=O)NC(=O)Nc1nc(OC)cc(OC)n1 | < 5 | 20 | < 5 | < 5 | < 5 | –
4 | CCOC(=O)c1c([N+](=O)[O-])nn(C)c1S(=O)(=O)NC(=O)Nc1nc(OC)cc(OC)n1 | 5 | 70 | 20 | 5 | < 5 | –
5 | CCOC(=O)c1c(OC)nn(C)c1S(=O)(=O)NC(=O)Nc1nc(OC)cc(OC)n1 | < 5 | > 90 | > 90 | 70 | 40 | –
6 | CCOC(=O)c1nn(C)c(S(=O)(=O)NC(=O)Nc2nc(OC)cc(OC)n2)c1C(=O)OCC | < 5 | < 5 | < 5 | < 5 | < 5 | –
7 | CCCOC(=O)c1cnn(C)c1S(=O)(=O)NC(=O)Nc1nc(OC)cc(OC)n1 | < 5 | > 90 | > 90 | 70 | < 5 | –
8 | CCCCOC(=O)c1cnn(C)c1S(=O)(=O)NC(=O)Nc1nc(OC)cc(OC)n1 | < 5 | < 5 | < 5 | < 5 | < 5 | –
9 | COc1cc(OC)nc(NC(=O)NS(=O)(=O)c2c(C(=O)N(C)C)cnn2C)n1 | < 5 | < 5 | < 5 | < 5 | < 5 | –
10 | COc1cc(OC)nc(NC(=O)NS(=O)(=O)c2c(S(=O)(=O)N(C)C)cnn2C)n1 | > 90 | > 90 | 70 | > 90 | 40 | –
11 | COc1cc(OC)nc(NC(=O)NS(=O)(=O)c2c(C#N)cnn2C)n1 | < 5 | < 5 | < 5 | < 5 | < 5 | –
12 | COc1cc(OC)nc(NC(=O)NS(=O)(=O)c2c([N+](=O)[O-])cnn2C)n1 | < 5 | < 5 | < 5 | < 5 | < 5 | –
13 | CCC(=O)c1cnn(C)c1S(=O)(=O)NC(=O)Nc1nc(OC)cc(OC)n1 | < 5 | 40 | 40 | 20 | 5 | –
14 | CCOC(=O)c1cn[nH]c1S(=O)(=O)NC(=O)Nc1nc(OC)cc(OC)n1 | 5 | 70 | 70 | 70 | 5 | –
15 | CCOC(=O)c1cnn(CC)c1S(=O)(=O)NC(=O)Nc1nc(OC)cc(OC)n1 | 5 | > 90 | > 90 | 70 | 5 | –
16 | CCCCn1ncc(C(=O)OCC)c1S(=O)(=O)NC(=O)Nc1nc(OC)cc(OC)n1 | < 5 | < 5 | < 5 | < 5 | < 5 | –
17 | CCOC(=O)c1cnn(-c2ccccc2)c1S(=O)(=O)NC(=O)Nc1nc(OC)cc(OC)n1 | < 5 | 70 | 40 | 20 | < 5 | –
18 | CCOC(=O)c1cnn(C)c1S(=O)(=O)NC(=O)Nc1nc(C)cc(C)n1 | 5 | 40 | < 5 | < 5 | < 5 | –
19 | CCOC(=O)c1cnn(C)c1S(=O)(=O)NC(=O)Nc1nc(C)cc(OC)n1 | < 5 | > 90 | 70 | 70 | 5 | –
20 | CCOC(=O)c1cnn(C)c1S(=O)(=O)NC(=O)Nc1nc(OC)nc(OC)n1 | 5 | < 5 | < 5 | < 5 | < 5 | –
21 | COc1cc(OC)nc(NC(=O)NS(=O)(=O)c2c(C)cnn2C)n1 | < 5 | 70 | 40 | 20 | 20 | –
22 | COc1cc(OC)nc(NC(=O)NS(=O)(=O)c2c(Br)cnn2C)n1 | < 5 | 40 | 70 | 40 | < 5 | –
23 | COc1cc(OC)nc(NC(=O)NS(=O)(=O)c2c(C(=O)O)cnn2C)n1 | < 5 | < 5 | < 5 | < 5 | < 5 | –
24 | COC(=O)c1cnn(C)c1S(=O)(=O)NC(=O)Nc1nc(OC)cc(OC)n1 | < 5 | > 90 | > 90 | 70 | 40 | –
25 | CCOC(=O)c1c(C)nn(C)c1S(=O)(=O)NC(=O)Nc1nc(OC)cc(OC)n1 | < 5 | > 90 | > 90 | > 90 | 70 | –
26 | CCCCOCN(C(=O)CCl)c1c(CC)cccc1CC [BUTACHLOR] | – | – | – | – | – | Activity (Oryza sativa [5]): 106%; Activity (Cyperus serotinus [6]): 70%; Activity (Sagittaria pygmaea [7]): 20%; Activity (unidentified [8]): 83%; Activity (Pontederia vaginalis [9]): 43%; Activity [10]: 88%; Activity (Echinochloa crus-galli [11]): 100%; Activity (Cyperus serotinus [12]): 63%; Activity (Sagittaria pygmaea [13]): 27%; Activity (unidentified [14]): 100%; Activity (Pontederia vaginalis [15]): 90%; Activity [16]: 100%; Activity (Echinochloa crus-galli [17]): 98%; Activity (Oryza sativa [18]): 103%; Activity (Oryza sativa [19]): 93%; Activity (Oryza sativa [20]): 99%
